Values of other authors, collected in US20220008839A1, “SEMI-AQUEOUS METHOD FOR EXTRACTING A SUBSTANCE” (Clean Imagineering LLC, priority 2020, published 2022).

| SMILES | solubility in ethanol (an alcohol such as ethanol) | solubility in water | solubility in ethyl acetate (ethyl acetate) | water solubility (at 20° C.) |
| --- | --- | --- | --- | --- |
| C=C(C)[C@@H]1CC[C@]2(CO)CC[C@]3(C)[C@H](CC[C@@H]4[C@@]5(C)CC[C@H](O)C(C)(C)[C@@H]5CC[C@]43C)[C@@H]12 [Betulin] | highly soluble | insoluble in water | – | – |
| CC(C)=CCC/C(C)=C/C=C/C(C)=C/C=C/C(C)=C/C=C/C=C(C)/C=C/C=C(C)/C=C/C=C(\C)CCC=C(C)C [Lycopene] | – | insoluble in water | freely soluble | – |
| CCOC(C)=O [ethyl acetate] | – | – | – | 86 mg/mL |
